We go through six compounds from PMC11173529, “Structure–Activity Relationship Studies in a Series of Xanthine Inhibitors of SLACK Potassium Channels” (Molecules, 2024).

This experiment addresses T1, human G288S SLACK (Homo sapiens, UniProt Q5JUK3, G269S).
T1 construct: host or cells: CHO-K1
T1 sequence (Q5JUK3 1-1235 isoform Q5JUK3-3 G288S): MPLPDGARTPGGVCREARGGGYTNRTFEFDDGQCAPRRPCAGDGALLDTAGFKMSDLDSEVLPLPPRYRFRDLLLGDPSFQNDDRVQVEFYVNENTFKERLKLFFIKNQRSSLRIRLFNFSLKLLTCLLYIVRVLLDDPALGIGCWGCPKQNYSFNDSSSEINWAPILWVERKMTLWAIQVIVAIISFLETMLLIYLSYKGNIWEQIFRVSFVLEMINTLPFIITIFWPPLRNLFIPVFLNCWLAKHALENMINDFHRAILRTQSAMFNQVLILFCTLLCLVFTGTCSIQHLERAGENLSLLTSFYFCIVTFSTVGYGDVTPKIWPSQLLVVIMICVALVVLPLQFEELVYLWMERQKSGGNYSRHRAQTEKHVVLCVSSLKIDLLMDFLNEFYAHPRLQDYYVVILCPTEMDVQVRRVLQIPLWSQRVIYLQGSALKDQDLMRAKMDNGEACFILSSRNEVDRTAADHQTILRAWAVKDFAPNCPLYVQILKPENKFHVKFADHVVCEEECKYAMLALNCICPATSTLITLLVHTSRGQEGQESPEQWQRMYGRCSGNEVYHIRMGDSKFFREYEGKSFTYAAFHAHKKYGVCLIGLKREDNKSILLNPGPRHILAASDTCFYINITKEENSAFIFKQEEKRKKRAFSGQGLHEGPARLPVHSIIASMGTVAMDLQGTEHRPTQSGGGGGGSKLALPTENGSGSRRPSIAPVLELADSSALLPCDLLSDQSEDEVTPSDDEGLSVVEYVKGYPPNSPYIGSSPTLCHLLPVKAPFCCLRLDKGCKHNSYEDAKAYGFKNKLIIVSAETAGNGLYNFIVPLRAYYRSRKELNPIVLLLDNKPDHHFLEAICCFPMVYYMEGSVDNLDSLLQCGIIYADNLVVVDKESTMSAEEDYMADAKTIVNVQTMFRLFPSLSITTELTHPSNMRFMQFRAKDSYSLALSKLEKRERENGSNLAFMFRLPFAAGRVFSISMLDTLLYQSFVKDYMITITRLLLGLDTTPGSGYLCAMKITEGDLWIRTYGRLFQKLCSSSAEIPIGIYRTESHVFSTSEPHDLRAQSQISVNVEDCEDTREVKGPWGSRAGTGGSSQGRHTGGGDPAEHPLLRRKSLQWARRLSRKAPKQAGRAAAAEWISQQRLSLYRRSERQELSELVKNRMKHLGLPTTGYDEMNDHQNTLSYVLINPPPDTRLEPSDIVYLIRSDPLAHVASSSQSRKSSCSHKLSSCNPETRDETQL
The experiment is described as follows: Whole-cell APC in CHO cells stably expressing human G288S SLACK. In kind it is cell-based. Conditions: for IC50: APC, CHO cells; for Imax: maximum inhibition at 30 µM standardized to VU0606170 (100%). The source says: Development of a useful SLACK inhibitor in vivo tool will require potent activity at the corresponding mouse ortholog as studies in appropriate mouse models will be critical. Thus, we evaluated analogs 32 and 48 in our APC assay using CHO cells stably expressing mouse WT SLACK (Table 6). […] We were also eager to evaluate the same compounds with regard to their ability to inhibit clinically relevant GOF SLACK mutants. Both the C-terminus A934T mutant and transmembrane G288S mutant have been associated with clinical cases of EIMFS [3, 7].
Stably transfected monoclonal HEK293 cell lines expressing Slick, Maxi-K α1/β3, Maxi-K α1/β4, CaV3.2, GIRK 1/2, KV2.1, KV7.2, NaV1.7, and TASK-1 were generated as previously described. Stably transfected monoclonal HEK293 cell lines expressing hERG were generated as previously described. CHO-K1 cells expressing human Slack and disease-associated human Slack mutations, G288S and A934T, were generated by transfecting a PiggyBac TRE mammalian expression vector (VectorBuilder, Chicago, IL, USA) containing KCNT1. FuGENE 6 (Promega, Madison, WI, USA) transfection reagent and protocol, together with Opti-MEM (Thermo Fisher Scientific, Walkham, MA, USA), were utilized.
Automated patch-clamp recording was performed with a SyncroPatch 768 PE system (Nanion, Munich, Germany) as previously described. Whole-cell recordings were performed at room temperature. Cells were harvested by first washing with PBS without Mg^2+ or Ca^2+ (Gibco, Billings, MT, USA) to remove cell culture media, followed by dissociation with TryPLE (Gibco, Billings, MT, USA). Cells were then resuspended and diluted to 100,000 cells/mL in external solution. External solution contained 105 mM NaCl, 4 mM KCl, 1 mM MgCl2, 5 mM CaCl2, 10 mM HEPES, and 40 mM N-Methyl-D-glucamine chloride, titrated to pH of 7.4 and osmolarity of 300 mOsm/kg; internal solution contained 70 mM NaCl, 70 mM KF, 10 mM KCl, 5 mM EGTA, and 5 mM HEPES, titrated to a pH of 7.2 and osmolarity of 295 mOsm/kg.
The APC protocol was set as follows: Cells were held at a […] of −80 mV for 100 ms, then a ramp protocol was performed from −100 mV to 80 mV at 0.4 mV/ms, followed by holding the cell at −80 mV for another 100 ms, then steps were performed at −20 mV, 0 mV, +20 mV, +40 mV, and +60 mV for 100 ms of each step. Whole-cell currents were measured at 0 mV and normalized to current after external buffer addition. […] To obtain the concentration-response relationship graphs and IC50 values, we take the median value of the last 7 current amplitude values obtained for each set of data points collected for a given concentration at a particular step.

As a reminder, the IC50 is the concentration needed to halve the response being measured. A higher IC50 goes with lower potency. With `CCCCN(Cc1ccc(F)cc1)c1nc2c(c(=O)n(Cc3cccc(OC)c3)c(=O)n2C)n1C` [Analog 80], half-maximal inhibition (IC50) was put at 710 nM. This lies in the sub-micromolar range. Regarding `COc1cccc(Cn2c(=O)c3c(nc(N(Cc4cccc(F)c4)CC4CC4)n3C)n(C)c2=O)c1` [Analog 79], the IC50 stood at 1000 nM. Still for that read-out and setting: for `CCCCN(Cc1cccc(F)c1)c1nc2c(c(=O)n(Cc3cccc(OC)c3)c(=O)n2C)n1C` [Analog 78] the value was 880 nM. `CN(Cc1cccc(F)c1)c1nc2c(c(=O)n(Cc3ccccc3)c(=O)n2C)n1C` [Analog 48] had an IC50 of 750 nM and an Imax of 100%. The compound `COc1cccc(Cn2c(=O)c3c(nc(N(Cc4ccc(F)cc4)CC4CC4)n3C)n(C)c2=O)c1` [Analog 81] had an IC50 of 790 nM. `COc1cccc(Cn2c(=O)c3c(nc(N(C)Cc4ccccc4)n3C)n(C)c2=O)c1` [Analog 32]: the midpoint of inhibition, the IC50, lay at 650 nM and the Imax came out at 100%.
